Results: patent US20030049807A1, “Micro-organism possessing enantioselective and regioselective nitrile hydratase/amidase activities” (priority 2001, published 2003)
Blank lines part the entries; values can stand above or below the molecule they belong to.

Experiments:
[1] = test system: nitrile-hydratase/amidase activity of the wild type strain; assay: Nitrile-hydratase/amidase activity of the wild type parent strain after induction with valeronitrile; type: cell-based, Agrobacterium radiobacter; settings: wild type strain sub-cultured with butyronitrile, induced with valeronitrile
Method: The parent strain, characterised as Agrobacterium radiobacter, was isolated from a crude bacterial extract with antibiotic activity. In order to determine activity towards nitrilic substrates, it was sub-cultured in medium containing butyronitrile and after some passages and induction with valeronitrile, a weak nitrile-hydratase/amidase activity was measured on benzoylphenylpropionitrile (BPN) of the wild type strain as such selected. To obtain a semi-constitutive strain, an aliquot of wild type parent strain was subjected to a treatment of mutagenesis, constituted by two treatment cycles with ethylmethanesulphonate, one cycle with nitrosoguanidine and two of mutagenesis with UV irradiation.

[2] = test system: nitrile hydratase/amidase activity of bacterial pellet of strain NCIMB 41108; assay: Enzymatic activity of the whole-cell biocatalyst (wet bacterial pellet) towards nitrile/amide substrates, HPLC or GC; type: cell-based, Agrobacterium radiobacter 30″60; settings: 30° C.; for enzymatic activity: 50 mg substrate, 250 mg wet pellet
Method: The enzymatic activity was evaluated using a bacterial pellet obtained after fermentation for 48 hours in fermentation medium as described below. Briefly, the culture was amplified from a single colony to begin with in a small volume of inoculating medium and then, for preparative purposes, in 100 ml of fermentation medium.
Fermentation medium: MgSO4 (0.5 g l^−1), ,CaCl2.6H2O (0.1 g l^−1), FeSO4 (0.4 g l^−1), CoCl2 (0.1 g l^−1), MnSO4 (0.01 g l^−1), (NH4)2SO4 (5 g l^−1), Yeast Extract (10 g l^31 1). The inducer, or the inducers, were added to the fermentation medium alone or in combination, sterilely, to a final concentration comprised of between 0.5-5 g/L. In particular, if not stated differently, valeronitrile, N-butyronitrile, isobutyronitrile and ε-caprolactam were used at a concentration respectively of 2.5 g/l and added in a single solution at the start of the process. To measure the basal activity of the strain 41108, no inducer was added to the fermentation medium.
Inoculation. […]
Reaction scheme. […] At preset time intervals, aliquots of the mixture were sterilely removed with a syringe, using a Minisart RC 25 filter 0,22 μm (Sartorius, Germany) and directly analysed by HPLC. The enzymatic activity was determined by the mean activity measured in the initial, linear phase of the conversion curve, relative to the wet weight of the bacterial paste. […]
Evaluation of the conversion percentages and of the enantiomeric excess. The percentage conversion of the substrate was measured by reverse phase HPLC using a reverse phase column of dimensions: 250×4.6 mm; 10 μm (Lichrosorb 10 RP18), and phosphate buffer at various percentages (10 mM, pH 2.5 e 3.5) with acetonitrile at 40 or 50% depending on the molecule to be detected. […] The e.e. values of the reaction products obtained from benzoylphenylpropionitrile were determined by HPLC fitted with a chiral column (dimensions: 100×4 mm; Chromtech AGP-column) and phosphate buffer used as eluent (10 mM, pH 7.0) with isopropanol (1%, v/v) and dimethyloctylamine (0,02%, v/v). […]

- nitrile-hydratase/amidase activity [1]: weak
Compound: CC(C#N)c1cccc(C(=O)c2ccccc2)c1 (racemic) [benzoylphenylpropionitrile, 2-(3-benzoylphenyl)propionitrile]

Compound: CC(C#N)c1cccc(Oc2ccccc2)c1 (stereo not drawn) [α-methyl-3-phenoxibenzen-acetonitrile]
- enzymatic activity ([2]; pellet induced with valeronitrile 0,25%, 1 hour): 5.23 IU g^−1 of wet cells

Compound: CC(C#N)c1ccccc1 (stereo not drawn) [α-methylbenzyl cyanide]
- rate of transformation, times higher ([2]; pellet induced with valeronitrile and ε-caprolactam 0,25%, comparator not given): approximately 20 times

Compound: CC(C#N)c1ccc(-c2ccccc2)c(F)c1 (stereo not drawn) [2-fluoro-α-methyl[1,1′-diphenyl]-4-acetonitrile]
- enzymatic activity ([2]; pellet induced with valeronitrile 0,2%, 24 hours): 0.26 IU g^−1 of wet cells
